Data from patent US9545386B2, “Methods of treating infectious diseases” (SLIPPERY ROCK UNIVERSITY FOUNDATION, INC., priority 2007, dated 2017).
≈ marks a conversion by molar mass, not a printed value.

Assays:
Assay type in all cases: cell-based
Aspergillus niger = test: Antifungal MIC/MFC, 96 well broth dilution; conditions: A. niger; MIC and MFC not determined
Description: (§1) Bacterial cultures were obtained from the American Type Culture Collection (ATCC), except for Streptococcus pyogenes, which was started from a Difco Bactrol disc. The other organisms were Enterococcus faecalis, Staphylococcus aureus, Escherichia coli, Salmonella typhimurium and Pseudomonas aeruginosa. Cultures were grown in Luria-Bertani (LB) broth. Fungi were obtained from Carolina Biological Supply Company (Aspergillus niger, Candida albicans and Cryptococcus neoformans); Presque Isle Cultures, Erie Pa. (Microsporum gypseum); or from ATCC (Penicillium marneffei). Fungal cultures were maintained in Sabouraud dextrose broth (SDB) or agar (SDA). All media components came from Difco.
(§2) Tests were done in flat-bottomed 96 well cell culture plates (Costar). All samples were done in duplicate. Eryngial was suspended in culture medium plus 0.04% Triton-X to make a 2% (20 mg/ml) suspension, which was passed through a 0.22 μm filter to make a uniform emulsion. Serial doubling dilutions of eryngial in culture medium plus 0.04% Triton-X were prepared, and 75 μl was added to each well. 75 μl of cell or spore suspensions in culture medium also were added to each well. The final concentration of Triton-X was 0.02%, and the final concentration of eryngial was 1% (10 mg/ml) at the highest concentration tested.
(§3) Dimethyl sulfoxide (DMSO) also was used as a solvent for eryngial. A solution of 12.5% eryngial in DMSO was the initial solution. Doubling dilutions were carried out in DMSO. The DMSO-eryngial solutions were diluted 100-fold into growth medium, resulting in a final concentration of 1% DMSO, and 0.125% (1,250 μg/ml) eryngial as the highest concentration tested.
(§4) The yeast form fungi, Candida albicans and Cryptococcus neoformans, were grown overnight in SDB. Cell density was determined by counting in a hemacytometer. Cells were diluted in fresh SDB to a density of 10^4/ml, and 75 μl, or 7.5×10^2 cells, was added to each well. The filamentous form fungi, Aspergillus niger, Microsporum gypseum and Penicillium marneffei, were grown on SDA until spores formed. The surface of the culture was rinsed vigorously with sterile distilled water to make a spore suspension, which was counted with a hemacytometer. The spores were diluted into SDB at 10^4/ml, and 75 μl, or 7.5×10^2 spores, were added to each well. The 96 well plates were incubated at room temperature in a humidified chamber for up to 96 hr, and culture growth was monitored microscopically. Growth was documented by photomicrographs at 24 hr intervals, and by determining OD630 in the microplate reader as for the bacterial cultures.
(§5) To determine whether eryngial was merely inhibiting growth of the bacteria and fungi, or whether it also was having a killing effect, the minimum bactericidal concentrations (MBC, μg/ml) or minimum fungicidal concentrations (MFC, μg/ml) were determined. This was done by removing a 50 μl sample from a well after 24 hr (bacteria) or 96 hr (fungi) and diluting the samples in 5 ml of fresh culture medium. These tubes then were incubated at the appropriate temperature for 24-96 hr and observed for any signs of growth.

Candida albicans = test: Antifungal MIC/MFC, 96 well broth dilution; conditions: C. albicans, 48-96 hr in vitro
Description: as §1, §2, §3, §4, §5

Microsporum gypseum = test: Antifungal MIC/MFC, 96 well broth dilution; conditions: Nannizzia gypsea, M. gypseum, 48-96 hr in vitro
Description: as §1, §2, §3, §4, §5

[1] = system: Trypanosoma conorhini trypomastigotes; test: In vitro antitrypanosomal bioassay, trypomastigote counts (Probit LC50/LC95); conditions: T. conorhini; for 24 hr LC95 ± 95% confidence intervals: 24 hr in vitro
Description: (§6) In this study, 75 μl of Locke's nematode saline (L.N.S.) solution with approximately 1.0×10^5 trypomastigotes/ml of each organism were placed in 15 wells of a cell culture plate. For T. mega, T. conorhini and T. avium, stock concentrations of eryngial (1, 2, 3 and 4 mg/ml) with 0.04% (w/v) Triton X-100 were prepared in L.N.S. Triton X-100 acted as an emulsifier for eryngial. Triplicate samples of each eryngial concentration were prepared by adding 75 μl of the stock to the wells with trypomastigotes of each species. The number of trypanosomes in each well therefore approximated 5×10^4/ml, while final concentrations of eryngial in the wells were 0.5, 1.0, 1.5, and 2.0 mg/ml, respectively. Each sample also had 0.02% Trition X-100. The control samples had no eryngial. The number of trypomastigotes that were present in 20 μl sub-samples of each well was determined using a hemacytometer at 0, 24 and 48 hr. A count of the trypanosomes in each grid was recorded and the average number of organisms per milliliter was determined. The above procedure was repeated to determine the effect of eryngial on T. rangeli. However, the final concentration of eryngial, the test compound, ranged from 0.15 to 0.9 mg/ml.

[2] = system: Trypanosoma avium trypomastigotes; test: as above; conditions: T. avium
Description: as §6

[3] = system: Trypanosoma rangeli trypomastigotes; test: as above; conditions: T. rangeli; for 24 hr LC95 ± 95% confidence intervals: 24 hr in vitro, 0.02% Triton X-100; for 48 hr LC95 ± 95% confidence intervals: 48 hr in vitro
Description: as §6

[4] = system: Trypanosoma mega trypomastigotes; test: as above; conditions: T. mega; for 24 hr LC95 ± 95% confidence intervals: 24 hr in vitro
Description: as §6

Staphylococcus aureus = test: Antibacterial MIC/MBC, 96 well broth dilution; conditions: S. aureus, 24 hr in vitro, 0.02% Triton X-100
Description: as §1, §2, §3
(§7) Overnight bacterial cultures in LB medium were diluted into fresh LB to an OD600 of 0.02 to 0.03, and then diluted 1000-fold again in LB. […] Blank wells for each concentration of eryngial were prepared with plain culture medium added.
(§8) The 96 well plates were incubated at 37° for 24 hr (in a candle jar for S. pyogenes), and the OD630 was read on an EL800 universal microplate reader (Bio-Tek Instruments). Readings from duplicate wells were averaged, and readings from duplicate blank wells for each concentration of eryngial were subtracted to generate the final values. The minimum inhibitory concentration (MIC, μg/ml) was defined as the well with the highest dilution of eryngial in which no growth was observed.
as §5

Streptococcus pyogenes = test: Antibacterial MIC/MBC, 96 well broth dilution; conditions: S. pyogenes, 24 hr in vitro, DMSO as solvent
Description: as §1, §2, §3, §7, §8, §5

Enterococcus faecalis = test: Antibacterial MIC/MBC, 96 well broth dilution; conditions: E. faecalis, 24 hr in vitro, 0.02% Triton X-100
Description: as §1, §2, §3, §7, §8, §5

[5] = 48 hr in vitro, listed as eryngial

CCCCCCCCC/C=C/C=O [Eryngial, trans-2-dodecenal]
growth in dilutions of the test compound (Aspergillus niger): growth, albeit reduced, occurred in all dilutions | MIC (Candida albicans): 391 µg/mL (≈ 2140 µM) | MBC (Candida albicans; table title says MFCs): 391 µg/mL (≈ 2140 µM) | MIC (Microsporum gypseum): 39 µg/mL (≈ 214 µM) | MBC (Microsporum gypseum; table title says MFCs): 39 µg/mL (≈ 214 µM) | 24 hr LC95 ± 95% confidence intervals [1]: 2.91 (2.22-4.69) mg/ml | 24 hr LC95 ± 95% confidence intervals ([1]; listed as eryngial): 2.91 mg/mL | 48 hr LC50 ± 95% confidence intervals ([1]; 48 hr in vitro): 0.68 (0.62-0.75) mg/ml | 48 hr LC95 ± 95% confidence intervals ([1]; 48 hr in vitro): 1.02 (0.91-1.20) mg/ml | 48 hr LC95 ± 95% confidence intervals [1, 5]: 1.14 mg/mL | 24 hr LC50 ± 95% confidence intervals ([2]; 24 hr in vitro): 1.19 (0.96-1.40) mg/ml | 24 hr LC95 ± 95% confidence intervals ([2]; 24 hr in vitro): 3.12 (2.57-4.16) mg/ml | 24 hr LC95 ± 95% confidence intervals ([2]; 24 hr in vitro, listed as eryngial): 3.12 mg/mL | 48 hr LC50 ± 95% confidence intervals ([2]; 48 hr in vitro): 0.76 (0.63-0.87) mg/ml | 48 hr LC95 ± 95% confidence intervals ([2]; 48 hr in vitro): 2.31 (1.87-3.26) mg/ml | 48 hr LC95 ± 95% confidence intervals [2, 5]: 1.02 mg/mL | 24 hr LC95 ± 95% confidence intervals [3]: 0.45 (0.38-0.55) mg/ml | 24 hr LC95 ± 95% confidence intervals ([3]; listed as eryngial): 0.45 mg/mL | 48 hr LC95 ± 95% confidence intervals [3]: 0.31 (0.26-0.43) mg/ml | 48 hr LC95 ± 95% confidence intervals ([3]; listed as eryngial): 0.31 mg/mL | 24 hr LC95 ± 95% confidence intervals [4]: 2.85 (2.20-4.40) mg/ml | 24 hr LC95 ± 95% confidence intervals ([4]; listed as eryngial): 2.85 mg/mL | 48 hr LC50 ± 95% confidence intervals ([4]; 48 hr in vitro): 0.50 (0.39-0.58) mg/ml | 48 hr LC95 ± 95% confidence intervals ([4]; 48 hr in vitro): 1.14 (0.95-1.56) mg/ml | 48 hr LC95 ± 95% confidence intervals [4, 5]: 2.31 mg/mL | MBC (Staphylococcus aureus): 78 µg/mL (≈ 428 µM) | MIC (Staphylococcus aureus): 78 µg/mL (≈ 428 µM) | MBC (Streptococcus pyogenes): 156 µg/mL (≈ 856 µM) | MIC (Streptococcus pyogenes): 156 µg/mL (≈ 856 µM) | MBC (Enterococcus faecalis): 313 µg/mL (≈ 1720 µM) | MIC (Enterococcus faecalis): 313 µg/mL (≈ 1720 µM)
